Test system: cholesterol biosynthesis
Test: Test A: Inhibition of cholesterol biosynthesis from acetate in vitro (rat liver microsome and sup fraction)
Format: biochemical, male Wistar rat
Conditions: based on the activities of CS-514 being evaluated to be 1
Protocol: Test A: Inhibition of cholesterol biosynthesis from acetate in vitro
Enzyme solution was prepared from liver of male Wistar rat billialy cannulated and discharged bile for over 24 hours. Liver was cut out at mid-dark and microsome and supernatant fraction which was precipitable with 40-80% of saturation of ammonium sulfate (sup fraction) were prepared from liver homogenate according to the modified method of Knauss et al; Kuroda, M, et al, Biochim. Biophys. Acta, 489, 119 (1977). For assay of cholesterol biosynthesis, microsome (0.1 mg protein) and sup fraction (1.0 mg protein) were incubated for 2, hours at 37° C. in 200 μl of the reaction mixture containing ATP; 1 mM, Glutathione; 6 mM, Glucose-1-phosphate; 10 mM, NAD; 0.25 mM, NADP; 0.25 mM, CoA; 0.04 mM and 0.2 mM [2-^14 C]sodium acetate (0.2 μCi) with 4 μl of test compound solution dissolved in water or dimethyl sulfoxide. To stop reaction and saponify, 1 ml of 15% EtOH-KOH was added to the reactions and heated at 75° C. for 1 hour. […] Inhibitory activity of compounds was indicated with IC50.

Row | Compound | Relative activities by Test A
1 | CCOC(=O)CC(O)CC(O)/C=C/c1c(CC)nc2ccccc2c1-c1ccc(F)cc1 (centres unmarked) [I-117] | 0.37
2 | CC(C)c1nc2c(Cl)cc(Cl)cc2c(-c2ccc(F)cc2)c1/C=C/C(O)CC(O)CC(=O)O (centres unmarked) [I-522] | 0.76

From patent US5872130A, “Quinoline type mevalonoactones” (Nissan Chemical Industries Ltd., priority 1988, dated 1999)
